Assay results reported in patent US20060134228A1, “Medicine for prevention of and treatment for amyloidosis” (Nipro Corporation, priority 2002, published 2006).

Molecular target: T1, transthyretin purified from human serum (Homo sapiens, UniProt P02766)
T1 construct: Using transthyretin purified from human serum as a transthyretin-containing solution; from tissue; host or cells: human serum
Assay: Quantitative ratio of transthyretin tetramer and transthyretin monomer (gel separation chromatography, Coomassie stain)
Format: biochemical
Details: metal chloride 80 μg/mL, transthyretin 0.2 mg/mL, incubated at 37° C.
Procedure: Using transthyretin purified from human serum as a transthyretin-containing solution, the purity thereof was confirmed by electrophoresis. The transthyretin-containing solution (10 mg/mL) was dissolved in a buffer solution to obtain a concentration of 0.2 mg/mL, and chromium chloride (80 μg/mL) was added. The pH of the buffer solution was adjusted to a pH necessary for each experiment using sodium hydroxide or hydrochloric acid. The above-described solution was incubated at 37° C. to produce amyloid fiber.
The transthyretin tetramer and the transthyretin monomer were separated by gel separation chromatography, immersed in the Coomassie Brilliant Blue stain, and examined for color developing intensity. Likewise, measurements were conducted for a comparative example wherein the metal compound added to the solution for incubation was changed from chromium chloride to aluminum chloride, and for a control not formulated with chromium chloride. Also, another test was conducted in the same manner, except that the metal compound added to the solution for incubation was replaced with 80 μg/mL chromium chloride and 80 μg/mL aluminum chloride (chromium chloride and aluminum chloride coexisted). Measurement results of fluorescence intensity and the quantitative ratio of the transthyretin tetramer and the transthyretin monomer are shown in FIG. 1.

Compound	decomposition from the transthyretin tetramer to the transthyretin monomer	decomposition from the transthyretin tetramer to the transthyretin monomer (listed as aluminum)
[Cl][Al]([Cl])[Cl] [aluminum ion, aluminum chloride]	promote the reaction of decomposing the transthyretin tetramer to the monomer	promote the decomposition
[Cl][Cr]([Cl])[Cl] [trivalent chromium ion, chromium chloride]	inhibit the reaction of decomposing the transthyretin tetramer to produce the monomer	–
